According to the METLIN SMRT retention time set (Domingo-Almenara et al. 2019):

Assay: gradient 5% acetonitrile 3 min, to 50% in 2 min, to 85% in 15 min, held 3 min, 100 µL/min
Details: column: Zorbax Extend-C18 2.1 x 50 mm; eluents: water / acetonitrile, 0.1% formic acid
Procedure, shortened: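 The mobile phases were water and acetonitrile, each with 0.1% formic acid, pumped at 100 μL/min through a Zorbax Extend-C18 column (2.1 × 50 mm, 1.8 μm). Pure standards were injected as mixtures of ~100 molecules and detected by a quadrupole time-of-flight mass spectrometer in positive and negative ionization mode. Retention time came from computationally picked adduct peaks, each inspected by hand.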

Row | Structure (SMILES) | RP-LC retention time [s]
1 | COc1ccccc1NC(=O)N1CCCC(Cn2c(C3CC3)nc3cccnc32)C1 (stereo not drawn) | 681
2 | CCN1CCN(c2c(S(=O)(=O)c3ccc(C)c(C)c3)cnc3cc(OC)c(OC)cc23)CC1 | 629
3 | CNC(=O)[C@@H]1C[C@H](Oc2cccnc2)CN1C(=O)C1CCC1 | 540
4 | CC(=O)c1ccc(NC(=O)Cn2nc3c(N(C)C4CCCCC4)nccn3c2=O)cc1 | 705
5 | CCN1C(=O)Cc2ccccc2C1C(=O)NCCOC (stereo not drawn) | 610
6 | CCCCC#Cc1nc(NC)c2ncn([C@@H]3O[C@H](CO)C(O)[C@@H]3O)c2n1 (stereo partly drawn) | 724
7 | CCN1CCCn2cc(S(=O)(=O)Nc3ccc(C)c(F)c3)cc2C1=O | 754
8 | CN1CCN(C(CNC(=O)c2ccc3nsnc3c2)c2ccc(F)cc2)CC1 (stereo not drawn) | 567
9 | COc1ccc(NC(=O)N2[C@H]3CC[C@@H]2c2cnc(-c4ccc(F)cc4)nc2C3)c(OC)c1 | 961
10 | CCOC(=O)C1CCN(C(=O)c2sc(-c3cn(C(C)C)c4ncccc34)nc2C)CC1 | 961
11 | CCc1ccc(CN2C(=O)C3(CCOCC3)CC2c2nnnn2C(C)(C)C)cc1 (stereo not drawn) | 862
12 | Cc1nc(-c2ccc3c(c2)CCN3C(=O)Cc2ccsc2)cs1 | 980
13 | O=C(O)Cc1sc(Nc2ccc(F)c(F)c2F)nc1-c1ccccc1 | 977
14 | O=C(NCc1ccccc1Cl)C(=O)NCC(c1ccc2c(c1)OCO2)N1CCOCC1 (stereo not drawn) | 678
15 | COc1ccc(C2(C(=O)N3CC(F)(F)C[C@H]3CN3CCN(C)CC3)CC2)cc1 | 641
16 | O=C(CSc1nccn1-c1ccc(C(=O)NCc2cccs2)cc1)NC1CCCC1 | 644
17 | Clc1cccc(N2CCN(c3ncnc4[nH]ncc34)CC2)c1 | 725
18 | CCc1ccc(NC(=O)Cn2cnc3nc(N4CCCC(C(=O)NC)C4)sc3c2=O)cc1 (stereo not drawn) | 694
19 | CC(C)CN1C(=O)CCc2cc(NS(=O)(=O)c3cccs3)ccc21 | 819
20 | CN1C(=O)c2cccnc2Sc2cc(C(=O)NC3CCCCC3)ccc21 | 773

Row | Structure (SMILES) | RP-LC retention time [s]
21 | CCCN(C(=O)CC)c1nc(-c2ccc(C)cc2)cs1 | 1330
22 | COc1ccc(OC)c(NC(=O)c2cc(C)n(CCN(C)C)c2C)c1 | 636
23 | CCc1nc(-c2csc(S(=O)(=O)N3CCC(C(=O)NC4CCCCCC4)CC3)c2)no1 | 997
24 | O=C(Cn1c(=O)c2cc(-c3cccs3)nn2c2ncccc21)NCCc1ccccc1 | 829
25 | CN(C)c1cc(C(N)=O)c2cccc(Cl)c2n1 | 638
26 | CCC1Oc2ccc(S(=O)(=O)N3CCC(C(=O)NCCc4ccccc4)CC3)cc2NC1=O (stereo not drawn) | 872
27 | COc1ccc(NC(=O)CSc2cc(N3CCN(c4ccccc4OC)CC3)ncn2)c(OC)c1 | 791
28 | O=C(Nc1cc(C(F)(F)F)cc(C(F)(F)F)c1)c1ccc(=O)[nH]n1 | 814
29 | Cc1ccc2c(Nc3cc(F)ccc3F)c(C(=O)N3CCCC3)cnc2n1 | 584
30 | CC(C)n1nnc2cc(S(=O)(=O)N3CCCC(C(=O)N4CCCCCC4)C3)ccc21 (stereo not drawn) | 886
31 | Cc1cc(=O)n(CC(=O)N2CCc3ccccc32)c(N)n1 | 608
32 | O=C(c1ccc(F)cc1)N1CCC(n2nc(-c3ccsc3)ccc2=O)CC1 | 816
33 | CCc1ccc(C(=O)N2CCCC(COc3ccc(C(=O)NC(C)C)cc3)C2)cc1 (stereo not drawn) | 944
34 | CCNc1nc(C)cc(N2CCN(C(=O)Nc3cc(C)cc(C)c3)CC2)n1 | 702
35 | CN(C)CCNC(=O)C1CCN(c2nccnc2Sc2ccccc2)CC1 | 629
36 | C[C@@H]1O[C@@H](O[C@H]2C(Oc3cc(O)c4c(=O)c(O)c(-c5ccc(O)cc5)oc4c3)O[C@H](CO)[C@@H](O)[C@@H]2O)[C@H](O)[C@H](O)[C@H]1O (stereo partly drawn) | 677
37 | O=C(Nc1ccc(F)cc1)C1CCN(S(=O)(=O)c2cc(C(=O)N3CCCCCC3)cs2)CC1 | 920
38 | COc1ccc(F)cc1S(=O)(=O)NC1CCc2nnc(C3CC3)n2CC1 (stereo not drawn) | 641
39 | Cc1ccc(S(=O)(=O)NCCn2c(C)cnc2C2CCC2)cc1F | 637
40 | CCN1C(=O)COc2ccc(-c3nc(NC(=O)CCC4CCCCC4)sc3C)cc21 | 1240

Row | Structure (SMILES) | RP-LC retention time [s]
41 | CC(C)C(=O)N1CCCCCCNC(=O)[C@@H]2CCCC[C@@H]21 | 777
42 | CCc1noc(NC(C)=O)c1-c1ccc(C)c(S(=O)(=O)NC(C)C)c1 | 738
43 | Cc1csc(-c2cc(S(=O)(=O)N(C)Cc3ccco3)c(C)n2C)n1 | 1000
44 | Cc1cc2[nH]c(C(=O)Nc3cc(F)c(F)c(F)c3)c(CN(C)C)c2s1 | 743
45 | CCOC(=O)c1ccc(NC(=O)c2cc3sc(Cl)cc3n2CC)cc1 | 1260
46 | Cc1nc2n(c(=O)c1C)CCN2CC(=O)NCc1ccccc1Cl | 652
47 | Cc1nnc(-c2cc(NC(=O)c3ccccc3Br)c(C)s2)o1 | 858
48 | O=C(CN1CC=C(c2cnn(-c3ccc(F)cc3)c2)CC1)N1CCN(c2ccccn2)CC1 | 566
49 | CCNC(=O)C1CCCN(c2nc3ncn(CC(=O)NCc4ccccc4)c(=O)c3s2)C1 (stereo not drawn) | 638
50 | CN1C(=O)CCc2cc(NC(=O)c3ccncc3)ccc21 | 579
51 | CCCn1ccc2oc(C)c(C(=O)NCc3ccc(C(C)C)cc3)c2c1=O | 786
52 | O=C(NCc1cscn1)C1CCN(S(=O)(=O)c2cccc(Cl)c2)CC1 | 747
53 | CC1=C(C(=O)OCCc2ccccc2)C(c2ccc(C)s2)NC(=O)N1 (stereo not drawn) | 859
54 | O=C(Nc1ccc(N2CCOCC2)nc1)NC1CCCC1 | 585
55 | CN(CC1CCOCC1)C(=O)Nc1cccc(Br)c1 | 784
56 | NC(=O)c1cc[nH]c1C1CCCN(C(=O)c2cscn2)C1 (stereo not drawn) | 579
57 | O=C(N[C@@H]1CN(Cc2ccc3c(c2)CCO3)C[C@H]1CO)C1CCC1 | 591
58 | CSCc1csc(NC(=O)c2ccc(F)c(F)c2)n1 | 857
59 | Cc1cccc(S(=O)(=O)N2CC3CN(C(=O)c4cnccn4)CC(C2)O3)c1 | 688
60 | COc1ccc(/C=C2\CCCc3ccccc3C2=O)cc1 | 1140

Results, then the molecule that gave them:

Row | RP-LC retention time [s] | Structure (SMILES)
61 | 583 | CCN(Cc1ccc(Cl)cc1)Cc1cc(=O)n2cc(C)ccc2n1
62 | 750 | CCCCN(C)C(=O)C1CCCN(c2ccc(-c3ccc(C)cc3)nn2)C1 (stereo not drawn)
63 | 903 | Cc1ccc(N2CC(c3nc(-c4ccc5oc(C)nc5c4)no3)CC2=O)cc1 (stereo not drawn)
64 | 995 | CC(C)c1noc(-c2cc(=O)n(CC(=O)Nc3ccc(F)cc3)c3ccccc23)n1
65 | 824 | Cc1ccc(-n2nc(N3CCCN(C(=O)c4ccc(Br)o4)CC3)ccc2=O)cc1C
66 | 1340 | Cc1cc(C)cc(-c2nc(-c3cccc(-c4ccnn4C)c3)no2)c1
67 | 705 | CC1(C)C(=O)Nc2ccc(S(=O)(=O)N3CCC(c4noc(-c5ccccn5)n4)C3)cc21 (stereo not drawn)
68 | 803 | COc1cccc(NC(=O)Cn2nc3cc(C)nc(-c4ccccc4)n3c2=O)c1
69 | 1160 | CSc1ccc(-c2nc3cnccn3c2Nc2ccc(C(C)C)cc2)cc1
70 | 792 | Cc1ccc(OCC(=O)Nc2nnc(C3CC(=O)N(c4ccc(F)cc4)C3)o2)cc1 (stereo not drawn)
71 | 621 | CCN1CCC2(CC1)N=C(c1ccc(Cl)cc1)CC(c1cccc(OC)c1O)N2 (stereo not drawn)
72 | 914 | Cc1ccc(CNC(=O)C2(C)CCN(C(=O)Nc3ccc(C)c(F)c3)CC2)cc1
73 | 790 | COc1ccc(OC)c(NC(=O)CN2C(=O)NC(c3ccc(Cl)cc3)C3=C2COC3=O)c1 (stereo not drawn)
74 | 1190 | Cc1nn(-c2nc(-c3ccc(F)cc3)cs2)c(C)c1CC(=O)Nc1ccc(Cl)cc1
75 | 814 | Cc1ccn2c(Nc3ccccc3C)c(-c3cc(Br)ccc3F)nc2c1
76 | 903 | Cc1cc(N2CCC(NC(=O)NCc3cccc(F)c3)C2=O)ccc1F (stereo not drawn)
77 | 825 | Cc1ccc(S(=O)(=O)n2c(N)nc3ccccc32)cc1
78 | 866 | CCOc1ccc(NC(=O)c2cnc3c(c2)c(=O)n(C)c(=O)n3-c2ccc(F)cc2)cc1
79 | 862 | Cc1ccc(N2CCC(NC(=O)Nc3cccc(C)c3)C2=O)cc1 (stereo not drawn)
80 | 1240 | c1ccc(-c2nc3cc(-c4noc(-c5ccco5)n4)ccc3o2)cc1
81 | 758 | COC(=O)Cn1c(C2CC(=O)N(c3cc(Cl)ccc3OC)C2)nc2ccccc21 (stereo not drawn)
82 | 946 | COc1ccc(-n2nc(-c3nc(-c4ccccn4)no3)c3ccccc3c2=O)cc1
83 | 891 | O=C1CC(c2ccc(F)cc2)Cc2c1cnn2-c1nc2ccccc2[nH]1 (stereo not drawn)
84 | 1300 | Cc1sc(C)c(S(=O)(=O)N2CC=C(c3ccccc3)CC2)c1-c1cc(C(F)(F)F)on1
85 | 881 | O=C(Cn1cccc(-c2nc(-c3ccc(Cl)cc3)no2)c1=O)NC1CCCC1
86 | 845 | Cc1ccc(N2CC(c3nc(-c4ccncc4)no3)CC2=O)cc1Cl (stereo not drawn)
87 | 1120 | O=C1COc2ccccc2N1Cc1nc(-c2cccc(Br)c2)no1
88 | 731 | CCc1noc(-c2cnc3nc(C)ccc3c2Nc2ccc3c(c2)OCCO3)n1
